Consider 7 compounds from patent publication US8772304B2, “Benzimidazole inhibitors of leukotriene production” (Boehringer Ingelheim International GmbH, priority 2010, dated 2014).

One experiment has as its system proteinuria. The settings on record: clinical trial, human glomerulonephritis; cited from earlier work.
Experiment [1] relates to atherosclerotic plaque. The settings on record: infusion, ApoE−/−xCD4dnTβRII mice, treated for four weeks; cited from earlier work.
Experiment [2] concerns atherosclerotic plaque. The settings on record: oral dosing, apoE/LDL-R double knockout mice, high-fat diet from 2 to 6 months of age; cited from earlier work.
For experiment [3], the system named is synthesis of LTB4 in human whole blood. Put plainly: human whole blood LTB4 production inhibition assay. It is filed as cell-based. The settings on record: heparinized human whole blood, calcimycin 20 μM stimulation, plasma LTB4; read-out: hWB IC50. The procedure: Compounds are additionally tested in a human whole blood assay to determine their ability to inhibit the synthesis of LTB4 in a cellular system. Compounds are combined with heparinized human whole blood and incubated for 15 minutes at 37° C. Calcimycin (20 μM final, prepared in phosphate-buffered saline, pH 7.4) is then added and the mixture is incubated for another 30 minutes at 37° C. The samples are centrifuged for 5 min at low speed (1500×g) and the plasma layer is removed. Plasma LTB4 concentrations are then measured using an antibody-based homogenous time-resolved fluorescence method (CisBio, Bedford, Mass.).

In experiment [4] the target is recombinant human FLAP protein (Homo sapiens (Human), UniProt P20292). The experiment in a line: FLAP binding assay (Scintillation Proximity Assay, displacement of iodinated FLAP inhibitor). The settings on record: displacement of [125I]L-691,831; membranes of sf9 cells expressing recombinant human FLAP; read-out: hFLAP binding IC50. On the procedure: Compounds are assessed for the ability to bind to FLAP in a binding assay that measures compound-specific displacement of an iodinated (^125I) FLAP inhibitor via a Scintillation Proximity Assay format (adapted from S. Charleson et al., Mol. Pharmacol., 1992, 41, 873-879).
Cell pellets produced from sf9 insect cells expressing recombinant human FLAP protein are resuspended in buffer A [15 mM Tris-HCl (pH 7.5), 2 mM MgCl2, 0.3 mM EDTA, 1 mM PMSF]. The cells are lysed with a Dounce homogenizer and the material is centrifuged at 10,000×g for 10 minutes. The supernatant is then collected and centrifuged at 100,000×g for 60 minutes. To prepare membrane protein for an assay, an aliquot of the 100,000×g pellet is resuspended in 1 ml of buffer A, Dounce homogenized, and finally subjected to polytron mixing (30 seconds). Membrane protein (25 μl, 5 μg) is mixed with WGA SPA beads (Amersham) and stirred for 1 h. […] (final concentrations: beads, 200 μg/well; protein, 5 μg/well; [^125I] probe, 0 08 nM/well (17 nCi/well). The plates are shaken for 2 h before reading on a Microbeta plate reader. Non-specific binding is determined by the addition of 10 μM cold L-691,831 compound.

Experiment [5] relates to biomarkers for myocardial infarction risk. The settings on record: clinical trial; cited from earlier work.

SMILES strings stand for the structures.

As a reminder, the IC50 is the midpoint of a concentration-inhibition curve.

Chain of recombinant human FLAP protein (P20292 whole entry): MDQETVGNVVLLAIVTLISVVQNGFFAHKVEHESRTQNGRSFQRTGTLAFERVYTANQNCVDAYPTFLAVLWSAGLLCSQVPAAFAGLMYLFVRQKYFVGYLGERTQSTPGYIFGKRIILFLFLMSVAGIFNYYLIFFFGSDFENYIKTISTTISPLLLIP

`CC(C)(C)Sc1c(CC(C)(C)C(=O)O)n(Cc2ccc(Cl)cc2)c2ccc(OCc3ccc4ccccc4n3)cc12` [MK-591]: the effect on proteinuria entry in the experiment with proteinuria is “reduce proteinuria”.
Turning to `CC(C)c1ccc2c(c1)c(SC(C)(C)C)c(CC(C)(C)C(=O)O)n2Cc1ccc(Cl)cc1` [MK-886], the “decrease in plaque area in the aortic root” value in the experiment on atherosclerotic plaque [1] is around 40%. For the same compound, in the experiment with atherosclerotic plaque [2], the “decrease in plaque coverage in the aorta” value is 56% and the “decrease in plaque coverage in the aortic root” value is on record as 43%.
As for `CC(C)(C)n1c(-c2ccncc2)nc2cc(-c3cnc(N)nc3)ccc21` [Example 18, 5-(1-tert-Butyl-2-pyridin-4-yl-1H-benzimidazol-5-yl)-pyrimidin-2-ylamine], the IC50 in experiment [3] is 449 nM; in experiment [4], 450 nM.
For the compound `O=C(O)[C@@H](c1ccc(OCc2ccc3ccccc3n2)cc1)C1CCCC1` [DG-031], the “effect on biomarkers for myocardial infarction risk” value in experiment [5] is given as “dose-dependent suppression of several biomarkers”.
As to `CC(C)(C)n1c(-c2cc(Br)cnc2-n2cncn2)nc2cc(-c3cnc(N)nc3)ccc21` [Example 23, 5-[2-(5-Bromo-2-1,2,4-triazol-1-yl-pyridin-3-yl)-1-tert-butyl-1H-benzimidazol-5-yl]-pyrimidin-2-ylamine], the IC50 in experiment [3] stood at 81 nM; in experiment [4] it was 4 nM.
On to `CC(C)(C)n1c(-c2cc(F)cnc2-n2cncn2)nc2cc(-c3cnc(N)nc3)ccc21` [Example 21, 5-[1-tert-Butyl-2-(5-fluoro-2-1,2,4-triazol-1-yl-pyridin-3-yl)-1H-benzimidazol-5-yl]-pyrimidin-2-ylamine], for which the 50% inhibitory concentration (IC50) in experiment [3] turned out to be 253 nM; in experiment [4] it was 20 nM.
In the case of `COC(=O)c1ccc(C#N)nc1-c1nc2cc(-c3cnc(N)nc3)ccc2n1C(C)(C)C` [Example 9, 2-[5-(2-Amino-pyrimidin-5-yl)-1-tert-butyl-1H-benzimidazol-2-yl]-6-cyano-nicotinic acid methyl ester], the figures for the IC50 in experiment [3] and in experiment [4] were 387 nM and 110 nM, respectively.
